Results published in publication PMC8234803, “In Vitro Metabolism of Six C-Glycosidic Flavonoids from Passiflora incarnata L” (International Journal of Molecular Sciences, 2021).
Entries after “also recorded” stand apart in the source; their conditions may differ.

Tests used:
Caco-2 cell monolayer = test: Caco-2 monolayer metabolism experiment, metabolites identified via UHPLC-DAD-MS(/MS); type: in vitro ADME, human; conditions: for Metabolites of the aglycones (cleavage of the C–C glycosidic bond): 100 µM approach; for Possible metabolite (phase II metabolite identified by MS/MS fragmentation and comparison with reference compound after enzymatic hydrolysis): glucuronidase/sulfatase cleavage, UHPLC-DAD-MS/MS; for Extent of phase I and II metabolism (in words): independent of incubation time and concentration
Protocol: To obtain information on the in vitro metabolism of the six tested C-glycosidic flavonoids in the intestine, experiments were carried out using the Caco-2 monolayer model (Figure 2). Metabolite profiles were characterized at two different concentrations (10 and 100 µM; n = 3) and after two different incubation times (3 or 5 h; n = 3) in order to determine the influence of concentration and time on the metabolism reactions that occurred. Furthermore, to analyze the distribution of the observed metabolites, samples were collected from the cell lysate and the apical and basolateral compartments. All samples of the metabolism experiments using the Caco-2 cell monolayer were analyzed using UHPLC-DAD-MS and UHPLC-DAD-MS/MS. Metabolites were identified by libraries that were prepared for each compound (Tables S1–S6). The O and IO libraries contained 67 metabolites (Tables S1 and S2), the S and IS libraries contained 106 metabolites (Tables S3 and S4), and the V and IV libraries contained 71 possible metabolites (Tables S5 and S6).
To form a confluent and differentiated monolayer, cells at passages 16–45 were seeded into the inserts of 12-well Transwell® plates at a density of 3.0 × 10^5 cells/cm^2. Afterwards, the culture medium was replaced every day, and the metabolism experiment was performed 21 days after seeding. The apical and basolateral compartments contained 0.5 and 1.5 mL of cell culture medium, respectively.
On day 21, the cell culture medium was removed from the apical and basolateral compartments, and the Caco-2 cell monolayer was washed two times with prewarmed HBSS. The Transwell® plates containing HBSS were incubated at 37 °C for 15 min to measure the transepithelial electrical resistance (TEER) value. The integrity of the cell monolayers was evaluated by TEER values between the apical and basolateral sides with the Evohm2 system (World Precision Instruments, Sarasota, FL, USA). The cell inserts were only used for the metabolism experiments if the resistance exceeded 350 Ω/cm^2. The six test substances were dissolved in DMSO to a stock solution of 20 mM. The HBSS was adjusted to pH 6.0 and 7.4 with 1 M HCl. Afterwards, the stock solutions were diluted to 10 or 100 µM in an appropriate volume of HBSS (pH 6.0) to obtain a DMSO concentration of <1%. The test solutions were added to the apical side (0.5 mL), while the basolateral side was filled with 1.5 mL of HBSS (pH 7.4). The Transwell® plates were incubated at 37 °C for 3 or 5 h, respectively. After this period, solutions from the apical and basolateral compartments were collected in separate tubes, washed twice with 500 µL of HBSS, and then collected again. The samples were lyophilized and stored at −20 °C until they were measured using UHPLC-DAD-MS. After the experiment, Transwell® inserts were apically (0.5 mL) and basolaterally (1.5 mL) filled with HBSS and warmed to 37 °C for 20 min. Then, the TEER values were measured to guarantee the integrity of the monolayer during the experiment. The experiment was performed in triplicate for each substance, concentration, and incubation time.
After the metabolism experiment, cell monolayers were washed twice with PBS and incubated with 200 µL of trypsin-EDTA for 10 min at 37 °C in an atmosphere of 5% CO2 and constant humidity in the incubator. The cells were removed from the well by pipetting up and down, and were collected in a tube. The well was washed twice with PBS (1 mL), and the wash solution was also collected in the corresponding tube. The mixture was centrifuged (1000× g rpm, 5 min), and the supernatant was discarded.

Caco-2 cells = test: MTT assay under metabolic conditions (cell viability); type: cell-based, human; conditions: 10, 25, 50, 75, 100 µM in HBSS (pH 6.0), 5 h incubation
Protocol: (§1) All six substances were tested in five different dilutions in HBSS (pH 6.0). The determined viability values of O, IO, S, IS, V, and IV are listed in the Supplementary Materials (Figure S2).
(§2) Caco-2 cells in the logarithmic growth phase were seeded in 96-well plates at a density of 3 × 10^4 cells/well and incubated at 37 °C in an atmosphere of 5% CO2 and constant moisture in an incubator. After 24 h, the cell culture medium was removed, and 100 µL of HBSS solution (negative control), 0.5% DMSO in HBSS solution (solvent control), or flavonoid samples in HBSS solution (6 flavonoids at concentrations of 10, 25, 50, 75, and 100 µM) was applied in quintuplicate and incubated for 5 h. Afterwards, the HBSS solutions were removed and replaced with an MTT solution in DMEM (0.4 mg/mL) and incubated for another 3 h at 37 °C. Then, the MTT solution was discarded, and the cells were fixed with a 10% SDS solution in PBS and stored at room temperature in the dark. After 24 h, the absorbance was measured on a Tecan microplate reader (Tecan Trading AG, Switzerland) at 560 nm. The viability rate was calculated as % = A/A0 × 100, with A as the average absorbance value of the treatment and solvent control groups and A0 as the average absorbance value of the negative control group. The assay was performed three times in pentaplicate.
(§3) The human colon adenocarcinoma cell line Caco-2 was obtained from the ATCC (American Type Culture Collection, Manassas, VA, USA). The cell line was determined to be free of mycoplasma contamination by PCR and culture from GATC Biotech AG (Konstanz, Germany). The cells were cultured in DMEM supplemented with 10% (v/v) FBS, 1% (v/v) NEAA, and 1% (v/v) antibiotics (penicillin/streptomycin) in an atmosphere of 5% CO2 and 90% relative humidity at 37 °C. The culture medium was replaced every 3 days, and the cells were split 1:5 using trypsin-EDTA once 90% confluence was obtained.

[1] = as above; type: cell-based, human; conditions: human, 5 h incubation, read-out: Viability of Caco-2 cells; for viability at 5 h, 10 µM: Caco-2, 10 µM in HBSS (pH 6.0); for viability at 5 h, 100 µM: Caco-2, 100 µM in HBSS (pH 6.0)
Protocol: as §1, §2, §3

[2] = Stability testing in test buffer (HBSS pH 6.0) under assay conditions, HPLC-DAD; type: physicochemical; conditions: 10 µM in HBSS pH 6.0, 37 °C, 5% CO2
Protocol: To guarantee the stability of all test substances during the metabolism assay on Caco-2 cells, they were incubated in the test buffer under assay conditions. Test samples were collected each hour for 5 h and were measured via HPLC-DAD.
To ensure stability during the Caco-2 metabolism experiments, all test substances were dissolved in DMSO to a concentration of 20 mM and diluted to 10 µM in an appropriate volume of HBSS (pH 6.0), resulting in a DMSO concentration of less than 1%. The test solution (1 mL) was aliquoted into a 12-well Transwell® plate and incubated for 5 h in an atmosphere of 5% CO2 and 90% relative humidity at 37 °C. Test samples (100 µL) were collected after t = 0, 1, 2, 3, 4, and 5 h and measured via HPLC-DAD. The peak area of the test substance at time t = 0 h was defined as 100%, and all other peak areas were related to calculate the proportional stability. The stability was calculated as % = area/area0 × 100. Stability testing was performed on three independent days with freshly prepared solutions (n = 3).
The system consisted of the following: Elite LaChrom with an L2200 autosampler, L2130 pump, L2350 column oven, L2444 DAD, and EZChrom Elite 3.1.7 software (Hitachi, Tokyo, Japan); column: Kinetex® Biphenyl, 100 Å, 250-4.6 mm (5 µm, same material precolumn; Phenomenex, Torrance, CA, USA); injection volume 30 µL; oven temp.: 25 °C; autosampler temp.: 10 °C; detection wavelength: 340 nm; flow: 1.2 mL/min; A = H2O + 0.1% TFA, B = acetonitrile + 0.1% TFA; gradient: 0–2 min 10% B, 2–10 min 10% B → 100% B, 10–11 min 100% B → 10% B, 11–15 min 10% B.

[3] = initial concentration 10 µM, 3 h, apical compartment
[4] = initial concentration 10 µM, 5 h, apical compartment
[5] = initial concentration 100 µM, 3 h, apical compartment
[6] = initial concentration 100 µM, 3 h, basolateral compartment
[7] = initial concentration 100 µM, 5 h, apical compartment

Row | Structure (SMILES) | Extent of metabolism (in words) (Caco-2 cell monolayer; 10 µM, 3 and 5 h) | Metabolites of the aglycones (cleavage of the C–C glycosidic bond) (Caco-2 cell monolayer) | Extent of metabolism (in words) (Caco-2 cell monolayer; 100 µM, 3 and 5 h) | Extent of phase I and II metabolism (in words) (Caco-2 cell monolayer) | Possible metabolite detected (Caco-2 cell monolayer; [3]) | Possible metabolite detected (Caco-2 cell monolayer; [4]) | Possible metabolite detected (Caco-2 cell monolayer; [5]) | Possible metabolite detected (Caco-2 cell monolayer; [6]) | Possible metabolite detected (Caco-2 cell monolayer; [7]) | Effect on the viability of Caco-2 cells (in words) (Caco-2 cells) | viability at 5 h, 10 µM [1] | viability at 5 h, 100 µM [1] | Stability (content relative to t = 0 h) ([2]; after 3 h of incubation) | other results
1 | O=c1cc(-c2ccc(O)cc2)oc2cc(O)c([C@@H]3O[C@H](CO)[C@@H](O)[C@H](O)[C@H]3O)c(O)c12 [IV, isovitexin] | broader ranges of phase I and II metabolites | metabolites of the corresponding aglycones apigenin and luteolin were also detected | extensive metabolism | highly metabolized in phase I and II reactions | Hydroxy-methoxy-isovitexin; also recorded: Hydroxy-apigenin-sulfate; also recorded: Hydroxy-methoxy-apigenin | Hydroxy-methoxy-isovitexin; also recorded: Hydroxy-dimethoxy-isovitexin; also recorded: Hydroxy-apigenin-sulfate | Hydroxy-apigenin-sulfate; also recorded: Hydroxy-dimethoxy-isovitexin; also recorded: Hydroxy-methoxy-apigenin; also recorded: Hydroxy-methoxy-isovitexin | Hydroxy-dimethoxy-isovitexin | Hydroxy-methoxy-isovitexin; also recorded: Hydroxy-apigenin-sulfate; also recorded: Hydroxy-dimethoxy-isovitexin; also recorded: Hydroxy-methoxy-apigenin | slight, concentration-dependent reductions | 92% | 82% | 96% | Possible metabolite (phase II metabolite identified by MS/MS fragmentation and comparison with reference compound after enzymatic hydrolysis) (Caco-2 cell monolayer): Methoxy-luteolin-sulfate; Stability (content relative to t = 0 h) ([2]; after 5 h incubation): 95%
2 | O=c1cc(-c2ccc(O)c(O)c2)oc2cc(O)c([C@@H]3O[C@H](CO)[C@@H](O)[C@H](O)[C@H]3O)c(O)c12 [IO, isoorientin] | broader ranges of phase I and II metabolites | metabolites of the corresponding aglycones apigenin and luteolin were also detected | extensive metabolism | highly metabolized in phase I and II reactions | Isoorientin-sulfate; also recorded: Hydroxy-luteolin-glucuronide; also recorded: Hydroxy-methoxy-isoorientin | Isoorientin-sulfate; also recorded: Hydroxy-methoxy-isoorientin | Methoxy-isoorientin-sulfate; also recorded: Hydroxy-luteolin-glucuronide; also recorded: Methoxy-luteolin; also recorded: Hydroxy-methoxy-isoorientin | Isoorientin-sulfate; also recorded: Hydroxy-methoxy-isoorientin | Hydroxy-isoorientin; also recorded: Methoxy-isoorientin-sulfate; also recorded: Hydroxy-luteolin-glucuronide | no significant effects at any concentration | – | – | approximately 100% | Possible metabolite (phase II metabolite identified by MS/MS fragmentation and comparison with reference compound after enzymatic hydrolysis) (Caco-2 cell monolayer; metabolite at RT 2.514 5.107 min, m/z 527.0501): IO-sulfate; Possible metabolite (phase II metabolite identified by MS/MS fragmentation and comparison with reference compound after enzymatic hydrolysis) (Caco-2 cell monolayer; metabolite at RT 5.134 min, m/z 477.0674): Quercetin-glucuronide; Possible metabolite (phase II metabolite identified by MS/MS fragmentation and comparison with reference compound after enzymatic hydrolysis) (Caco-2 cell monolayer; metabolite at RT 5.476 min, m/z 461.0724): Luteolin-glucuronide; Possible metabolite detected (Caco-2 cell monolayer; initial concentration 10 µM, 3 h, basolateral compartment): Isoorientin-sulfate; also recorded: Hydroxy-methoxy-isoorientin; Possible metabolite detected (Caco-2 cell monolayer; initial concentration 100 µM, 3 h, cell lysate): Isoorientin-sulfate; also recorded: Methoxy-isoorientin; Possible metabolite detected (Caco-2 cell monolayer; initial concentration 100 µM, 5 h, basolateral compartment): Isoorientin-sulfate; Possible metabolite detected (Caco-2 cell monolayer; initial concentration 100 µM, 5 h, cell lysate): Isoorientin-sulfate; also recorded: Methoxy-isoorientin
3 | O=c1cc(-c2ccc(O)cc2)oc2c([C@@H]3O[C@H](CO)[C@@H](O)[C@H](O)[C@H]3O)c(O)cc(O)c12 [V, vitexin] | very limited metabolism | – | a few hydroxylated and methoxylated derivatives | poorly metabolized in phase I and II reactions | – | – | Hydroxy-methoxy-vitexin | Hydroxy-methoxy-vitexin | Hydroxy-vitexin | slight, concentration-dependent reductions | 92% | 83% | approximately 100% | Phase II conjugates containing glucuronic acid or sulfates (Caco-2 cell monolayer; 10 µM, 3 and 5 h): No phase II conjugates containing glucuronic acid or sulfates were detectable; Phase II metabolites with glucuronic acid or sulfates (Caco-2 cell monolayer; 100 µM, 3 and 5 h): lacked the presence of phase II metabolites with glucuronic acid or sulfates
